# Results from patent publication US20250257055A1, “TERTIARY AMIDE DERIVATIVES SUBSTITUTED WITH 4-MEMBERED RING STRUCTURE” (Sumitomo Pharma Co., Ltd., priority 2024, published 2025).
# Like-named read-outs stand apart in the source and are kept apart here.
# Assays:
# recombinant p300 = recombinant p300 (Homo sapiens (Human), UniProt Q09472); assay: HAT activity inhibition experiment (SensoLyte HAT(p300) Assay Kit); type: biochemical; conditions: recombinant p300, histone H3 peptide, acetyl CoA
# Procedure, shortened: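 Recombinant human p300 preincubated with compound 10 min at room temperature, then acetyl-CoA and histone H3 peptide added and reacted 30 min at 37 °C. After stop, developer added for 30 min at room temperature in the dark; fluorescence read at Ex 389/Em 513 nm.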
# G-401 cells = assay: Cell proliferation inhibition experiment using G-401 cells; type: cell-based; conditions: Homo sapiens, 72 h, cultured for 3 days, CellTiter-Glo
# Procedure, shortened: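 Malignant rhabdoid tumor-derived cells, grown in McCoy's 5A with 10% FBS, were seeded at 500 cells/well and dosed one day later (final DMSO 0.1%). After 3 days of culture at 37° C, viability was read by CellTiter-Glo luminescence.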
# Solubility test = type: physicochemical; conditions: aqueous buffer, thermodynamic from solid, 5° C., overnight
# Method: The solubility was measured for Examples 7, 10, 20, 23, 24, and 30 to 34, Comparative Example 1, and Comparative Example 2. The test compound was added to 10 mmol/L glycine buffer (pH 2.0) and 10 mmol/L citrate buffer (pH 3.0), and the mixture was stored in a thermostatic chamber at 5° C. After standing overnight, the mixture was filtered through a membrane filter, and the concentration of the filtrate was measured by HPLC.
# G-401 xenograft [1] = assay: Drug efficacy evaluation by oral administration using G-401 xenograft model mice; type: in vivo; conditions: for antitumor effect (in words): G-401 xenograft model, oral administration; for T/C: oral twice a day
# Method: (§1) G-401 cells (ATCC) were intradermally transplanted into 4-7-week-old BALB/cAnNCrj-nu/nu mice (CAnN.Cg-Foxn1/CrlCrlj, Jackson Laboratory Japan) at 5×10^5 cells/mouse. After confirming the engraftment of G-401 cells 10-40 days after transplantation, the test compound suspended in a solvent such as 0.5% methylcellulose solution was orally administered twice a day at a dose of 1-100 mg/kg. The tumor volume was measured over time from the start of administration, and the effect of tumor volume reduction by administration of the test compound was evaluated. The tumor volume can be calculated from the following equation using the minor axis and major axis of the tumor measured with an electronic caliper (Mitutoyo).
# A control administration group administered with only a solvent such as 0.5% methylcellulose solution and a test compound administration group were compared, and the antitumor effect was evaluated by calculating T/C from the following equation.
# G-401 xenograft [2] = assay: Drug efficacy evaluation by intravenous administration using G-401 xenograft mice model; type: in vivo; conditions: for antitumor effect (in words): G-401 xenograft model, intravenous administration; for T/C: intravenous (tail vein), 14 days
# Method: as §1, with “as 10 mmol/L glycine buffer” for “as 0.5% methylcellulose”, “solution (pH 2.0)” for “solution”, “was” for “was orally”, “administered via the tail vein at least once” for “administered twice”, “a week” for “a day”, “of 0.015-20” for “of 1-100”
# A control administration group administered with only a solvent such as 10 mmol/L glycine buffer solution (pH 2.0) and a test compound administration group were compared, and the antitumor effect was evaluated by calculating T/C from the following equation.
# hDAT = hDAT (Homo sapiens (Human), UniProt Q01959); assay: Dopamine receptor inhibitory activity evaluation (binding assay, CHO-S/hDAT membranes); conditions: CHO-S/hDAT membrane preparation
# Sequence of hDAT (Q01959 whole entry): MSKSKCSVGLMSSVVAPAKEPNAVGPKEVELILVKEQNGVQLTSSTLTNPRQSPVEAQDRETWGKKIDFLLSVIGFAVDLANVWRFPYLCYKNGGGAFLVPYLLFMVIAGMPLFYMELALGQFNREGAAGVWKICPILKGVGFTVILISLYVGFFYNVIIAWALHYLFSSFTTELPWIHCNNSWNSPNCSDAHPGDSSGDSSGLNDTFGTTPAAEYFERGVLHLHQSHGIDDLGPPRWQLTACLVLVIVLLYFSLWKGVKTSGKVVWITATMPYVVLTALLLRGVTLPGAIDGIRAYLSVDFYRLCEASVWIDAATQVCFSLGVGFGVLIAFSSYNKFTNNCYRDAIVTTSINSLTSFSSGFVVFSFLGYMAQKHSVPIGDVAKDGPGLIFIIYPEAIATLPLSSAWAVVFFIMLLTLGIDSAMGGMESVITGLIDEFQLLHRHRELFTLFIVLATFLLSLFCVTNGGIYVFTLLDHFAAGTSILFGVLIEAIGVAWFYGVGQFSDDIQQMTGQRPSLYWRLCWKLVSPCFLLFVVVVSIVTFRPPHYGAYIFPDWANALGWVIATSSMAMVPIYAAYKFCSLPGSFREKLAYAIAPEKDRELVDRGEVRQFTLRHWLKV
# Method: The binding evaluation assay was outsourced to Eurofins. Specifically, CHO-S/hDAT cells were homogenized in an incubation buffer consisting of 50 mmol/L Tris-HCl, pH 7.4, 100 mmol/L NaCl, 1 μmol/L Leupeptin, and 10 μmol/L PMSF. The membrane pellet obtained by centrifugation was resuspended in the incubation buffer to prepare a membrane preparation. The test compound (1-10 μmol/L DMSO solution), the membrane preparation, and 0.15 nmol/L […] were mixed and incubated at 4° C. for 180 minutes. The cell membrane-[^125I]RTI-55 complex was bound to a GF/B filter mat by vacuum filtration and washed with 50 mmol/L Tris-HCl, pH 7.4. The effect on the receptor was assessed by measuring radioactivity using a scintillation counter.
# hSERT = hSERT (Homo sapiens (Human), UniProt P31645); assay: Serotonin receptor inhibitory activity evaluation (binding assay, HEK293/hSERT membranes); conditions: HEK293/hSERT membrane preparation, [3H]Paroxetin
# Sequence of hSERT (P31645 whole entry): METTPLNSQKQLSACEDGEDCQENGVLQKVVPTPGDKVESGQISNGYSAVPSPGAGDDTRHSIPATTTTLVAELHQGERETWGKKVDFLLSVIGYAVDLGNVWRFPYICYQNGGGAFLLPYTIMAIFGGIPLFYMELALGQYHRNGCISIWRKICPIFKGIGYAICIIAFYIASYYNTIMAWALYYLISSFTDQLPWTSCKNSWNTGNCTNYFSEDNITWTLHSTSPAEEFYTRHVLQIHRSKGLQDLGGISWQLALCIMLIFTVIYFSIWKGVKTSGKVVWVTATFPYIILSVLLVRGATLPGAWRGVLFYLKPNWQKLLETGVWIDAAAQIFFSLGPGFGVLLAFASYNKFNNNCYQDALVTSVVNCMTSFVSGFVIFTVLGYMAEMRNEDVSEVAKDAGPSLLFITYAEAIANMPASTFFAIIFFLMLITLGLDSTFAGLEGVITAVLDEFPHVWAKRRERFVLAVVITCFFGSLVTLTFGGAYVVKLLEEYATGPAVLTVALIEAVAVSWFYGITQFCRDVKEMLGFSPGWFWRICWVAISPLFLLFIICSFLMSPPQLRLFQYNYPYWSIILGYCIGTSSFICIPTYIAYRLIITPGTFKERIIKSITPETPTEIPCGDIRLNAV
# Method: The binding evaluation assay was outsourced to Eurofins. Specifically, HEK293/hSERT cells were homogenized in a buffer consisting of 100 mmol/L NaCl, 1 μmol/L Leupeptin, 10 μmol/L PMSF, and 50 mmol/L Tris-HCl (pH7.4). The membrane pellet obtained by centrifugation was resuspended in an incubation buffer consisting of 50 mmol/L Tris-HCl (pH 7.4), 120 mmol/L NaCl, and 5 mmol/L KCl to prepare a membrane preparation. The test compound (1-10 μmol/L DMSO solution), the membrane preparation, and 0.4 nmol/L [^3H]Paroxetin were mixed and incubated at 25° C. for 60 minutes. The cell membrane-[^3H]Paroxetin complex was bound to a GF/B filter mat by vacuum filtration and washed with 50 mmol/L Tris-HCl (pH 7.4). The effect on the receptor was assessed by measuring radioactivity using a scintillation counter.
# [3] = 10 mmol/L citrate buffer (pH 3.0), read-out: Solubility in pH 3.0 buffer
# [4] = 10 mmol/L glycine buffer (pH 2.0), read-out: Solubility in pH 2.0 buffer
# Sequence of recombinant p300 (Q09472 whole entry): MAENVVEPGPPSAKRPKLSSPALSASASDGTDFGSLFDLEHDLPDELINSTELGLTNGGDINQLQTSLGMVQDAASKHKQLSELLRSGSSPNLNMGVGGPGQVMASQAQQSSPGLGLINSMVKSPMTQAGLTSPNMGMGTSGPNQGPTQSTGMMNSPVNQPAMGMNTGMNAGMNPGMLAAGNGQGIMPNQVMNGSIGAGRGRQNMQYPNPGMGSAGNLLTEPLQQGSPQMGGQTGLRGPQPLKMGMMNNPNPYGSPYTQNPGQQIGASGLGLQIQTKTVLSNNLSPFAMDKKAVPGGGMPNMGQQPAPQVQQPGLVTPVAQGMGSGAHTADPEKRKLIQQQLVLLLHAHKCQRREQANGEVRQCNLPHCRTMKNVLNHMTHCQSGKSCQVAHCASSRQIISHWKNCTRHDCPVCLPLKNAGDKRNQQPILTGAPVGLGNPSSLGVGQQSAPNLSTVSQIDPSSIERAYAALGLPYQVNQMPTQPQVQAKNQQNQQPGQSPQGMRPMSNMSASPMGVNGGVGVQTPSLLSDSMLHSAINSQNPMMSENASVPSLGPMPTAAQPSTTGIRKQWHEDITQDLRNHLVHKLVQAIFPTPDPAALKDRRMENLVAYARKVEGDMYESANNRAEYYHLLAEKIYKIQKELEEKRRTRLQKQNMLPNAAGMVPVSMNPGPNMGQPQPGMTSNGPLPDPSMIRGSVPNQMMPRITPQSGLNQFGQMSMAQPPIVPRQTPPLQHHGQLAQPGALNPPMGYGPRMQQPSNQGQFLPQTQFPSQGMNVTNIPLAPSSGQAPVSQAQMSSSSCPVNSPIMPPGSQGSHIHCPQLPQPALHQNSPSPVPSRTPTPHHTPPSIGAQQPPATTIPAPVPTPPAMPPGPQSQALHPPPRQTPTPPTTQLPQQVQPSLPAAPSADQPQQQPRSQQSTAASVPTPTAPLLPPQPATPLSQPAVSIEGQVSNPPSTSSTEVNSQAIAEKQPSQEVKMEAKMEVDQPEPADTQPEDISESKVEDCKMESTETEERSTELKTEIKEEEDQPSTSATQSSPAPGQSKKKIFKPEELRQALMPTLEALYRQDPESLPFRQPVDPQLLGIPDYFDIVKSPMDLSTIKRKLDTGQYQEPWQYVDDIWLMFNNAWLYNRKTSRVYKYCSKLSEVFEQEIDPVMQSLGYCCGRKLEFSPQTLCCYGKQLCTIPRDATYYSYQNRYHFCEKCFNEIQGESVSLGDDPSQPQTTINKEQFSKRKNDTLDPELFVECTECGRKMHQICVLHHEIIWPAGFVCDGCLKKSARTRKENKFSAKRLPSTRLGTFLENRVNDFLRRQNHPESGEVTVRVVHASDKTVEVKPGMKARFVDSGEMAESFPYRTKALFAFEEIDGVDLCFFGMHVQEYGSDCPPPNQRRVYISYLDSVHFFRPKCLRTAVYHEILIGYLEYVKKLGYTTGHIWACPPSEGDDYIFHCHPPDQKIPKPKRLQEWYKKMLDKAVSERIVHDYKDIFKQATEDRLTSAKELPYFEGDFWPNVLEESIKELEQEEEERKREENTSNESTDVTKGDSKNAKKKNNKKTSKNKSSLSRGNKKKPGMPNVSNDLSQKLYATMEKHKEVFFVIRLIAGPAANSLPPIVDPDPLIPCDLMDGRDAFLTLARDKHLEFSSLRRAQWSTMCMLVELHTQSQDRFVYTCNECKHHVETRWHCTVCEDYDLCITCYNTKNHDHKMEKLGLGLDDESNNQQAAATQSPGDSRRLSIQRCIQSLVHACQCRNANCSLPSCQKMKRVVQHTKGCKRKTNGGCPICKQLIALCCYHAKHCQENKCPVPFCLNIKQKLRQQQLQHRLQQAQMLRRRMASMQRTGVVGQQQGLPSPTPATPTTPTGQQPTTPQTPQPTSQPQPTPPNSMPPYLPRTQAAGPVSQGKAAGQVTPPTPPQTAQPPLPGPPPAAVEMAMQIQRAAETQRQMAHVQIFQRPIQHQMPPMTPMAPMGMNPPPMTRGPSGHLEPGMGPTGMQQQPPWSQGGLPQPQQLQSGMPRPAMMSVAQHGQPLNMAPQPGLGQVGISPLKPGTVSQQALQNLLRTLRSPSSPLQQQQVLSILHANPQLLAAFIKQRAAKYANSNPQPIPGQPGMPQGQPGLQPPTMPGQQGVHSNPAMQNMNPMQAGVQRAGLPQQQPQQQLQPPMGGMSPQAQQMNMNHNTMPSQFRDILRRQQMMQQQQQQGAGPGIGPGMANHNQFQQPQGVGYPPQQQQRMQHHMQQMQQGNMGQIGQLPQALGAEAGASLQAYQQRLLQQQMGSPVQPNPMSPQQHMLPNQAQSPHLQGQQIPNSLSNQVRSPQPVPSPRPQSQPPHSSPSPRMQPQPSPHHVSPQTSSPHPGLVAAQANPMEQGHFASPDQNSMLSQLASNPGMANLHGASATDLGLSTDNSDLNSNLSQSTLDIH
Compound,IC50 (recombinant p300),solubility (Solubility test; [3]),solubility (Solubility test; [4]),inhibition at 10 µM (hDAT),inhibition at 10 µM (hSERT),IC50 (G-401 cells),antitumor effect (in words) (G-401 xenograft [1]),"T/C (G-401 xenograft [1]; 20 mg/kg, 21 days)","T/C (G-401 xenograft [1]; 30 mg/kg, 21 days)",antitumor effect (in words) (G-401 xenograft [2]),T/C (G-401 xenograft [2]; 10 mg/kg),"T/C (G-401 xenograft [1]; 3 mg/kg, 21 days)","T/C (G-401 xenograft [1]; 10 mg/kg, 21 days)",T/C (G-401 xenograft [2]; 20 mg/kg),"T/C (G-401 xenograft [1]; 10 mg/kg, 34 days)","T/C (G-401 xenograft [1]; 30 mg/kg, 34 days)"
"CN1CC(N(Cc2ccc(F)cn2)C(=O)CN2C(=O)N[C@]3(C[C@@H](F)c4cc(-c5cnn(C)c5)ccc43)C2=O)(C(F)(F)F)C1 [Example 20, 2-[(1′S,3′R)-3′-fluoro-5′-(1-methyl-1H-pyrazol-4-yl)-2,5-dioxo-2′,3′-dihydrospiro[imidazolidine-4,1′-inden]-1-yl]-N-[(5-fluoropyridin-2-yl)methyl]-N-[1-methyl-3-(trifluoromethyl)azetidin-3-yl]acetamide]",1.7 nM,8600 µg/mL,> 10000 µg/mL,46%,-1%,36 nM,strong antitumor effects,80%,89%,strong antitumor effects,53%,–,–,–,–,–
"CN1CC(N(Cc2ccc(F)cc2)C(=O)CN2C(=O)N[C@]3(C[C@@H](F)c4cc(-c5cnn(C)c5)ccc43)C2=O)(C(F)(F)F)C1 [Example 10, 2-[(1′S,3′R)-3′-fluoro-5′-(1-methyl-1H-pyrazol-4-yl)-2,5-dioxo-2′,3′-dihydrospiro[imidazolidine-4,1′-inden]-1-yl]-N-[(4-fluorophenyl)methyl]-N-[1-methyl-3-(trifluoromethyl)azetidin-3-yl]acetamide]",0.4 nM,1600 µg/mL,> 10000 µg/mL,6%,-5%,10 nM,strong antitumor effects,–,–,strong antitumor effects,73%,53%,102%,–,–,–
"O=C1N[C@]2(C[C@@H](F)c3cc(-c4cnn(C5CCN(C6COC6)CC5)c4)ccc32)C(=O)N1CC(=O)N(Cc1ccc(F)cn1)C1(C(F)(F)F)COC1 [Example 23, 2-[(1′S,3′R)-3′-fluoro-5′-{1-[1-(oxetan-3-yl)piperidin-4-yl]-1H-pyrazol-4-yl}-2,5-dioxo-2′,3′-dihydrospiro[imidazolidine-4,1′-inden]-1-yl]-N-[(5-fluoropyridin-2-yl)methyl]-N-[3-(trifluoromethyl)oxetan-3-yl]acetamide]",9 nM,8600 µg/mL,> 10000 µg/mL,7%,3%,82 nM,strong antitumor effects,81%,–,strong antitumor effects,–,–,–,54%,–,–

# The next lines start with results.
IC50 (recombinant p300),solubility (Solubility test; [3]),solubility (Solubility test; [4]),inhibition at 10 µM (hDAT),inhibition at 10 µM (hSERT),Compound,IC50 (G-401 cells),antitumor effect (in words) (G-401 xenograft [1]),"T/C (G-401 xenograft [1]; 20 mg/kg, 21 days)","T/C (G-401 xenograft [1]; 30 mg/kg, 21 days)",antitumor effect (in words) (G-401 xenograft [2]),T/C (G-401 xenograft [2]; 10 mg/kg),"T/C (G-401 xenograft [1]; 3 mg/kg, 21 days)","T/C (G-401 xenograft [1]; 10 mg/kg, 21 days)",T/C (G-401 xenograft [2]; 20 mg/kg),"T/C (G-401 xenograft [1]; 10 mg/kg, 34 days)","T/C (G-401 xenograft [1]; 30 mg/kg, 34 days)"
9.8 nM,> 10000 µg/mL,> 10000 µg/mL,6%,15%,"CN1CC(N(Cc2ccc(F)cn2)C(=O)CN2C(=O)N[C@]3(C[C@@H](F)c4cc(-c5cnn(C6COC6)c5)ccc43)C2=O)(C(F)(F)F)C1 [Example 24, 2-{(1′S,3′R)-3′-fluoro-5′-[1-(oxetan-3-yl)-1H-pyrazol-4-yl]-2,5-dioxo-2′,3′-dihydrospiro[imidazolidine-4,1′-inden]-1-yl}-N-[(5-fluoropyridin-2-yl)methyl]-N-[1-methyl-3-(trifluoromethyl)azetidin-3-yl]acetamide]",36 nM,–,–,–,strong antitumor effects,–,–,–,44%,–,–
0.9 nM,4600 µg/mL,> 10000 µg/mL,7%,-1%,"O=C1N[C@]2(C[C@@H](F)c3cc(-c4cnn(C5CN(C6COC6)C5)c4)ccc32)C(=O)N1CC(=O)N(Cc1ccc(F)cn1)C1(C(F)(F)F)COC1 [Example 7, 2-[(1′S,3′R)-3′-fluoro-5′-{1-[1-(oxetan-3-yl)azetidin-3-yl]-1H-pyrazol-4-yl}-2,5-dioxo-2′,3′-dihydrospiro[imidazolidine-4,1′-inden]-1-yl]-N-[(5-fluoropyridin-2-yl)methyl]-N-[3-(trifluoromethyl)oxetan-3-yl]acetamide]",44 nM,strong antitumor effects,–,–,strong antitumor effects,–,–,–,40%,31%,80%
